This note sets out measurements from US9578878B2, “Antimicrobial efficacy of an oregano oil and caprylic acid blend” (Kemin Industries, Inc., priority 2014, dated 2017).

Holding throughout (assay type): cell-based
For experiment [1], the system named is Candida albicans (ATCC #10231). Briefly: Microtiter assay, MIC to inhibit 90% growth. Conditions: 24 hours, n = 3. As to the method: (§1) For assays to find minimum inhibitory concentrations, all treatments were diluted in 10% DMSO and 0.5% Tween 80 to stabilize the samples.
(§2) Microorganisms Escherichia coli (ATCC #8739), Streptococcus sanguinis (ATCC #BAA-1455), Salmonella enteria subsp. enterica (ex Kauffmann and Edwards) Le Minor and Popoff serovar Typhimurium (ATCC #14028), Staphylococcus aureus (ATCC #6538), Pseudomonas aeruginosa (ATCC #9027), and Candida albicans (ATCC #10231) were obtained from a −80° C. internal stock culture. Aspergillus brasiliensis (ATCC #16404) was obtained from an internal stock solution culture stored at 4° C. E. coli, S. enterica S. aureus, and P. aeruginosa were grown in tryptic soy broth (TSB) and incubated at 37° C. for 24 h. S. sanguinis was grown in brain heart infusion broth (BHI). A. brasiliensis was plated on Sabourand dextrose agar (SDA) and incubated at 25° C. for 5-7 days. C. albicans was grown in Sabourand dextrose broth (SDB) and incubated at 25° C. for 48 h.
(§3) A. brasiliensis was harvested by adding 18 mL sterile saline to the plate and agitating the mold from the agar with a sterile inoculating loop. The inoculum was collected upon agitation. All suspended microbes were diluted with the same type of broth media used to grow each organism until an inoculum in the range of 10^6 CFU/mL was achieved. The inoculum concentration was determined by plate count method. Each strain was identified by plating on the appropriate growth media, E. coli, S. aureus, and P. aeruginosa on tryptic soy agar (Bacto, BD Sciences, Manassas, Va.) and C. albicans and A. brasiliensis on Sabrouand dextrose agar, to ensure there was no contamination of the inoculum.
(§4) Microtiter Assay. A microtiter assay was completed E. coli, S. aureus, P. aeruginosa, S. enteria, S. sanguinis, and C. albicans. Briefly, 10^6 cfu/ml preparations of each organism were made and enumerated using a Petroff-Hausser counting chamber. A 100 μl aliquot of the inoculums was dispensed into microtiter plate wells and a 100 μl aliquot of treatment was dispensed into the same wells. Two separate set of wells were prepared as positive and negative controls, with the positive wells containing 100 μl test organism in growth media and 100 μl sterile phosphate buffer and with the negative control wells containing 100 μl of the same growth media and 100 μl sterile phosphate buffer. The plates were incubated overnight at the appropriate temperature for each organism. A plate reader was used to track the kinetic growth curve using 405 nm and […]. The last time point at 24 hours was averaged and used to determine MIC90. Each treatment was conducted in triplicate wells.

The test system of experiment [2] is Escherichia coli (ATCC #8739). Briefly: Microtiter assay, MIC to inhibit 90% growth. Conditions: 24 hours, n = 3. As to the method:
as §1, §2, §3, §4

In experiment [3] the test system is Pseudomonas aeruginosa (ATCC #9027). Briefly: Microtiter assay, MIC to inhibit 90% growth. As to conditions: 24 hours, n = 3. The protocol:
as §1, §2, §3, §4

A further experiment relates to Salmonella enterica. As to the kind of experiment: Microtiter assay, MIC to inhibit 90% growth. As to conditions: 24 hours, n = 3. As to the method: as §1, §2, §3, §4
The subject of experiment [4] is Staphylococcus aureus (ATCC #6538). Briefly: Microtiter assay, MIC to inhibit 90% growth. Conditions: 24 hours, n = 3. As to the method: as §1, §2, §3, §4
Experiment [5] has as its system Streptococcus sanguinis (ATCC #BAA-1455). Briefly: Microtiter assay, MIC to inhibit 90% growth. Conditions: 24 hours, n = 3. The protocol: as §1, §2, §3, §4
The subject of experiment [6] is Aspergillus brasiliensis (ATCC #16404). As to the kind of experiment: Preservative efficacy testing in cream, Example 2 (Study 1 and 2). As to the method: (§5) Oregano essential oil containing 67.8% carvacrol (lot number 628034, thymol was not detectable) was received from Kemin SCI. Caprylic acid was obtained from Fisher Scientific (catalog number AC12939). To make MicroCurb OC, a blend with 10% oregano essential oil and 90% caprylic acid (w/w) was prepared for initial testing. The solution was mixed thoroughly for 10 seconds by a vortex mixer until a clear, homogenous mixture was obtained, resulting in the product MicroCurb OC.
(§6) Creams were prepared aseptically by spraying 70% isopropyl alcohol on all surfaces and glassware. Preservative studies were completed at different times for caprylic acid alone (Study 1) and MicroCurb OC (Study 2). Tables 5 and 6 list the various ingredients and their percentages used in Study 1 and 2, respectively.
(§7) De-ionized water was added to a pre-weighed 250 mL beaker and mixed at 800 rpm using an overhead mixer (Eurostar power-b IKA-WERKE, Wilmington, N.C.) with a 3 blade impeller. Carbomer 940 was slowly added to the center of the mixing water. The mixture was hydrated for 30 minutes while covered with aluminum foil. Glycerin and Lysofix were slowly added to the solution. After solution appeared homogenous, safflower oil, olive oil, and coco caprylate were slowly added to the mixture at 1000 rpm. The solution was mixed for 30 minutes while covered with aluminum foil. Next the pH was measured (around 3.2) and adjusted to 5.5 with a 33.3% sodium hydroxide solution. The mixing speed was increased to 1400 rpm. From time to time, it was necessary to scrape the sides of the beaker with a spatula to ensure that the cream became homogenized. After 5 minutes, the cream was weighed and water was replenished for the mass lost during the processing.
(§8) Microorganisms Escherichia coli (ATCC #8739), Staphylococcus aureus (ATCC #6538), Pseudomonas aeruginosa (ATCC #9027), and Candida albicans (ATCC #10231) were obtained from −80° C. internal stock cultures. Aspergillus brasiliensis (ATCC #16404) was obtained from an internal stock solution stored at 4° C. E. coli, S. aureus, and P. aeruginosa were grown in TSB and incubated at 37° C. for 24 h. A. brasiliensis was plated on SDA and incubated at 25° C. for 5-7 days. C. albicans was grown in SDB and incubated at 25° C. for 48 h.
(§9) Pathogens in broth were harvested by centrifugation (2400 rpm, 20 minutes) and suspended in sterile phosphate buffer. A. brasiliensis was harvested by adding 18 mL sterile phosphate buffer to the plate and agitating the mold from the agar with a sterile inoculating loop. The spores were collected upon agitation. All suspended microbes were diluted with sterile phosphate buffer until a concentration in the range of 10^8 CFU/mL was achieved. The concentration was determined by plate count method. Each strain was identified by plating on the appropriate growth media, E. coli, S. aureus, and P. aeruginosa on TSA and C. albicans and A. brasiliensis on SDA, to ensure there was no contamination of the inoculum.
(§10) Preservative Efficacy Testing. Each tube was inoculated with the standardized microbial suspensions, using a ratio of 1 mL to 10 grams of the product, ensuring that the inoculum after suspension would yield the target level of 6-log CFU/g cream. For every testing time point, the sample was enumerated by sampling 1 g from the original product containers, serial dilution, and streaking plates containing the appropriate growth media to test colonization in duplicate. The inoculated plates were incubated at 25° C. for C. albicans and A. niger and 37° C. for E. coli, S. aureus, and P. aeruginosa. The number of viable microorganisms per gram was calculated via plate count method. The samples were enumerated on day 0, 2, 3, 5, 7, 14, and 28.
(§11) The plate counts obtained each day were averaged for each treatment. The results were shown graphically by the log count of each averaged value per treatment per day. For plates that had no growth, the lowest dilution plated was recorded.

In experiment [7] the test system is Candida albicans (ATCC #10231). Described as above. As to conditions: Study 1, cream with 0.5% or 1.0% caprylic acid, after 2 days. The protocol:
as §5, §6, §7, §8, §9, §10, §11

The subject of experiment [8] is Staphylococcus aureus (ATCC #6538). The description is as above. As to conditions: Study 1, cream with 0.5% or 1.0% caprylic acid, after 2 days. The protocol: as §5, §6, §7, §8, §9, §10, §11

In the case of `CCCCCCCC(=O)O` [Caprylic Acid, octanoic acid], in [1], the “Minimum Inhibitory Concentration (MIC) to inhibit 90% growth, C. albicans” value came out at 0.09%. Besides, in experiment [2], the “Minimum Inhibitory Concentration (MIC) to inhibit 90% growth, E. coli” value was determined as 0.27%. The “Minimum Inhibitory Concentration (MIC) to inhibit 90% growth, P. aeruginosa” value in experiment [3] turned out to be 0.90%. Besides, the “Minimum Inhibitory Concentration (MIC) to inhibit 90% growth, S. enterica” value in the experiment on Salmonella enterica was determined as 0.90%. Also, in experiment [4], the “Minimum Inhibitory Concentration (MIC) to inhibit 90% growth, S. aureus” value was 0.09%. In experiment [5], the “Minimum Inhibitory Concentration (MIC) to inhibit 90% growth, S. sanguinis” value came out at 0.09%. The “Log reduction of A. brasiliensis” value in [6] (Study 1, cream with caprylic acid, by the end of the study (28 days)) is 2 log. Moreover, the “Ability to reduce the mold in cream” value in [6] (caprylic acid alone as control) was “unable to reduce the mold”. In [7], the “Log reduction of C. albicans” value is reported as 5 log. Moreover, in experiment [8], the “Log reduction of S. aureus” value turned out to be 5 log.
